{"source": "patent US5082964A", "about": "“Selective acetylcholinesterase inhibitors and methods of making and using same” (priority 1986, dated 1992)", "key": {"acetylcholinesterase [1]": {"system": "acetylcholinesterase", "experiment": "Time course inactivation of acetylcholinesterase", "assay_type": "biochemical", "text": "The synthetic preparation of the hydrochloride salt of the tertiary amine inhibitors involves only slight modifications of the general method."}, "[2]": {"experiment": "Solubility, hygroscopicity and stability", "assay_type": "physicochemical"}, "acetylcholinesterase [3]": {"molecular_target": "acetylcholinesterase", "experiment": "Ellman assay for acetylcholinesterase inhibition (enzyme source not given)", "assay_type": "biochemical", "conditions": "enzyme source not stated", "text": "(§1) Ortho-, meta-, and p-chloromethylphenyl choline carbonates are all examples of inhibitors of acetylcholinesterase in accordance with the present invention. Employing the Ellman assay for acetylcholinesterase inhibition [G. L. Ellman, K. D. Courtney, V. Andrews, Jr., and R. M. Featherstone, Biochem. Pharmacol., vol."}, "[4]": {"conditions": "cited from earlier work"}, "acetylcholinesterase [5]": {"molecular_target": "acetylcholinesterase (Electrophorus electricus, UniProt O42275)", "sequence (O42275 24-633)": "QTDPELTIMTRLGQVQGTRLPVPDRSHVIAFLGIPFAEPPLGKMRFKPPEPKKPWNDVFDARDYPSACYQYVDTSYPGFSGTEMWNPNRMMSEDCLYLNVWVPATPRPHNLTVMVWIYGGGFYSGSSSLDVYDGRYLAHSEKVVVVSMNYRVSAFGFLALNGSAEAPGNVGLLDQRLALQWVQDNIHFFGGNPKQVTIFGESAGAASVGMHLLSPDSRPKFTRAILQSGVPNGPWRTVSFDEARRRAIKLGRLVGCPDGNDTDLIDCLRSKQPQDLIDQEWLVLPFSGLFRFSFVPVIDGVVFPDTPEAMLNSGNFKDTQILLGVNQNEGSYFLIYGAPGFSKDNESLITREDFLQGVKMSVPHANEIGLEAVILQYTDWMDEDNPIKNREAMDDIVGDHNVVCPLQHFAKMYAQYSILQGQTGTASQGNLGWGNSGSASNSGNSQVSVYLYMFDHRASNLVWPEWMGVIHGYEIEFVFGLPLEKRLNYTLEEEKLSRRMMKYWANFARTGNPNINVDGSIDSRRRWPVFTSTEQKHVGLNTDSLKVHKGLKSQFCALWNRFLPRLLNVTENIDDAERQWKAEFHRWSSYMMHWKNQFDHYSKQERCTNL", "experiment": "Ellman assay for acetylcholinesterase inhibition, IC50 (eel-derived enzyme)", "assay_type": "biochemical, electric eel", "text": "as §1\nFrom such competitive inhibitor measurements it was possible to determine an IC50 (proportionate amount necessary to reduce acetylcholinesterase activity by 50%) for various inhibitors [meaning those containing the CH2 X group] in this patent. All IC50 values fell between 8 and 200 uM. The exact value varied with the source of the acetylcholinesterase and quantitative measurements were performed on electric eel and human erythrocyte enzyme. Values reported below are with eel-derived enzyme. [drawing 5] where"}, "acetylcholinesterase [6]": {"molecular_target": "acetylcholinesterase", "experiment": "Inhibition and inactivation kinetics of acetylcholinesterase, substrate protection", "assay_type": "biochemical", "conditions": "for Protection against inactivation by substrate acetylcholine: equimolar concentrations of acetylcholine and inhibitor (10 μM each), pre-incubation state", "text": "as §1\np-Chloromethylphenyl choline carbonate iodide salt is an example of an inhibitor of acetylcholinesterase in accordance with the present invention."}}, "note": "Structures can show the parent of a compound that is named as a salt. Where two headings read alike, the source gives them in different places.", "data": [{"smiles": "CN(C)CCOC(=O)Oc1ccc(CCl)cc1", "values": [{"measurement": "Time course inactivation relative to p-chloromethylphenyl choline carbonate", "setting": "acetylcholinesterase [1]; compared with p-chloromethylphenyl choline carbonate", "value": "time course inactivation similar to that for the p-chloromethylphenyl choline carbonate"}, {"measurement": "Potency relative to the quaternary compound", "setting": "acetylcholinesterase [1]; deduced from time course data", "value": "as potent as the quaternary compound"}, {"measurement": "Inactivation of acetylcholinesterase", "setting": "acetylcholinesterase [1]; first 15 minutes at 40 uM concentration", "value": 88, "unit": "%"}, {"measurement": "Water solubility", "setting": "[2]", "value": "water- soluble"}]}, {"smiles": "CC(C)(C)CCOC(=O)Oc1ccc(CCl)cc1", "note": "[3,3-dimethylbutyl p-chloromethylphenyl carbonate]", "values": [{"measurement": "IC50", "setting": "acetylcholinesterase [3]", "value": 8, "unit": "µM"}]}, {"smiles": "CCOP(=O)(OCC)OP(=O)(OCC)OP(=O)(OCC)OP(=O)(OCC)OCC", "note": "(stereo not shown) [hexaethyltetraphosphate]", "values": [{"measurement": "Solubility in petroleum ethers and kerosene", "setting": "[4]", "value": "general insolubility"}, {"measurement": "Solubility in water (known inhibitors)", "setting": "[4]", "value": "somewhat soluble in water"}]}, {"smiles": "C[N+](C)(C)CCOC(=O)Oc1cccc(CCl)c1", "note": "[meta-CH2 Cl]", "values": [{"measurement": "IC50", "setting": "acetylcholinesterase [5]", "value": 150, "unit": "µM"}]}, {"smiles": "C[N+](C)(C)CCOC(=O)Oc1ccccc1CCl", "note": "[ortho-CH2 Cl]", "values": [{"measurement": "IC50", "setting": "acetylcholinesterase [5]", "value": 100, "unit": "µM"}]}, {"smiles": "C[N+](C)(C)CCOC(=O)Oc1ccc(CCl)cc1", "note": "[p-chloromethyl phenyl choline carbonate iodide salt]", "values": [{"measurement": "IC50", "setting": "acetylcholinesterase [5]; eel-derived enzyme, Ellman assay, read-out: IC50 (proportionate amount necessary to reduce acetylcholinesterase activity by 50%)", "value": 40, "unit": "µM"}, {"measurement": "Ki", "setting": "acetylcholinesterase [6]; 25° C., pH=8 phosphate buffer", "value": 32, "unit": "µM"}, {"measurement": "Km", "setting": "acetylcholinesterase [6]; 25° C., pH=8 phosphate buffer", "value": 144, "unit": "µM"}, {"measurement": "Inactivation mode / kinetics", "setting": "acetylcholinesterase [6]; below inhibitor concentrations of 40 μM", "value": "time-dependent manner with pseudo first order kinetics"}, {"measurement": "Protection against inactivation by substrate acetylcholine", "setting": "acetylcholinesterase [6]", "value": "offers partial protection against inactivation"}, {"measurement": "Protection against inactivation by substrate acetylcholine", "setting": "acetylcholinesterase [6]; listed as p-chloromethyl derivative", "value": "offers protection against inactivation"}, {"measurement": "Hygroscopicity", "setting": "[2]; solid iodide salt", "value": "very hygroscopic"}]}]}
